# Legend:
# Endothelial lipase (EL) = Endothelial lipase (EL) (Homo sapiens (Human), UniProt Q9Y5X9); test: EL assay: endothelial lipase activity with fluorescent substrate A10070 in DMPG vesicles; type: biochemical
# Method: (§1) Endothelial lipase (EL) and hepatic lipase (HL) activities were measured using a fluorescent substrate, A10070, (Invitrogen, CA) doped into an artificial vesicle containing DMPG (Avanti Polar Lipids) as the excipient. Vesicles were prepared by combining 571 μL of 29 mM DMPG in a 1:1 mixture of MeOH and CHCl3 with 2000 μL of 1 mM A10070 in a 1:1 mixture of MeOH and CHCl3. The mixture was dried under nitrogen in multiple vials then resuspended in 20 mL total volume of 50 mM HEPES pH 8.0 buffer containing 50 mM NaCl and 0.2 mM EDTA. The sample was allowed to sit at room temperature for 15 min and then was sonicated 3×4 mins on ice with a Branson Sonicator using duty cycle 1. This preparation provides vesicles with a mole fraction of 0.11 for the FRET substrate.
# (§2) The enzymatic assay was measured using 384-well white Optiplates. Each well contained 20 μL of assay buffer (50 mM HEPES pH 8.0, 50 mM NaCl and 1 mM CaCl2) and 0.25 μL of a DMSO solution containing a compound of interest. EL or HL (10 μL) was added and allowed to incubate with the compound for 30 min at 37° C. The source of EL was conditioned media obtained from HT-1080 cells that were transformed using RAGE technology (Athersys) to overexpress endogenous EL, and HL was partially purified from conditioned media obtained from COS cells overexpressing HL. The reaction was started by the addition of 10 μL of a 1:10 dilution of vesicles. The final total reaction volume was […]. The reaction rates were measured on a Gemini plate reader with an excitation wavelength of 490 nm and an emission wavelength of 530 nm. Readings were taken over a period of 60 minutes, and the slope between 300 and 900 secs of the readout was used to calculate the rate of the reaction.
# hepatic lipase (HL) = hepatic lipase (HL) (Homo sapiens (Human), UniProt P11150); test: HL assay: hepatic lipase activity with fluorescent substrate A10070 in DMPG vesicles; type: biochemical
# Method: as §1, §2
# Sequence of hepatic lipase (HL) (P11150 23-499, species assumed): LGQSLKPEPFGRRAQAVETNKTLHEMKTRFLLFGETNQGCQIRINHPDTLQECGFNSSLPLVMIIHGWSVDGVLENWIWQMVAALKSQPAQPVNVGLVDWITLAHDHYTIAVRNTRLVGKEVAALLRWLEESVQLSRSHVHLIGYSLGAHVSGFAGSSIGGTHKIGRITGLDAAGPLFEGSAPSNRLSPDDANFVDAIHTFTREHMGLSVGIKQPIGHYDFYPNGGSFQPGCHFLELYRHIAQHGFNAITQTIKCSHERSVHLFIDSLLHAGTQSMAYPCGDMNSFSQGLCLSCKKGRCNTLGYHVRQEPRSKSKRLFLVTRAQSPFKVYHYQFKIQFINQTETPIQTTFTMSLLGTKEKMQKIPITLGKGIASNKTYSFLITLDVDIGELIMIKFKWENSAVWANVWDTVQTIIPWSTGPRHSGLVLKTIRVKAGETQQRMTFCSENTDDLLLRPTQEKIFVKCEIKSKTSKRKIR
# Sequence of Endothelial lipase (EL) (Q9Y5X9 21-500): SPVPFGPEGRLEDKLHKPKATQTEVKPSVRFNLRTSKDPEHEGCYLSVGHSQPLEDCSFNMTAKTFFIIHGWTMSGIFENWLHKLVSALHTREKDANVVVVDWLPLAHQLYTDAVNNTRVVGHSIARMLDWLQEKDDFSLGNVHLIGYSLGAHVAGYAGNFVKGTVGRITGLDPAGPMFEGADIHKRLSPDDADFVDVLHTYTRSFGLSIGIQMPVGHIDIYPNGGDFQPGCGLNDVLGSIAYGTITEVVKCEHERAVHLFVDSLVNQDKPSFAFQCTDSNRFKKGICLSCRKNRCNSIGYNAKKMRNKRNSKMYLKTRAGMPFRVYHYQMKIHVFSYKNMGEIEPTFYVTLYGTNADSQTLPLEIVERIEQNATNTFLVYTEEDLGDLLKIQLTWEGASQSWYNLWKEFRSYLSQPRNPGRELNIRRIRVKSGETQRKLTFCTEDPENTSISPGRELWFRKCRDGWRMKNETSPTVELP
IC50 (Endothelial lipase (EL)),IC50 (hepatic lipase (HL)),Compound
< 10 nM,61 nM,"NS(=O)(=O)CCNC(=O)C(c1nc2ccc(-c3ccc(CCO)cc3)cc2s1)S(=O)(=O)CC1CC1 (centres unmarked) [Example B60, 2-((cyclopropylmethyl)sul-fonyl)-2-(6-(4-(2-hydroxyethyl)phenyl)-1,3-benzothiazol-2-yl)-N-(2-sulfamoylethyl)acetamide]"
< 10 nM,50 nM,"CN1CCOc2cc(-c3ccc4nc(C(C(=O)NCCS(N)(=O)=O)S(C)(=O)=O)sc4c3)ccc21 (centres unmarked) [Example B61, 2-(6-(4-methyl-3,4-dihydro-2H-1,4-benzoxazin-7-yl)-1,3-benzothiazol-2-yl)-2-(methylsulfonyl)-N-(2-sulfamoylethyl)acetamide]"
1.2 nM,1 nM,"CS(=O)(=O)C(C(=O)NCCS(N)(=O)=O)c1nc2ccc(-c3cccc(N4CCCC4)c3)cc2s1 (centres unmarked) [Example B62, 2-(methylsulfonyl)-2-(6-(3-(1-pyrrolidinyl)phenyl)-1,3-benzothiazol-2-yl)-N-(2-sulfamoylethyl)a-cetamide]"
0.5 nM,2.6 nM,"COCc1ccc(-c2ccc3nc(C(C(=O)NCCS(N)(=O)=O)S(C)(=O)=O)sc3c2)cc1 (centres unmarked) [Example B63, 2-(6-(4-(methoxymethyl)phen-yl)-1,3-benzothiazol-2-yl)-2-(methylsulfonyl)-N-(2-sulfamoylethyl)a-cetamide]"
0.5 nM,1.9 nM,"COCCOC(=O)Nc1ccc(-c2ccc3nc(C(C(=O)NCCS(N)(=O)=O)S(C)(=O)=O)sc3c2)cc1 (centres unmarked) [Example B64, 2-methoxyethyl(4-(2-(1-(methylsulfonyl)-2-oxo-2-((2-sulfamoylethyl)amino)eth-yl)-1,3-benzothiazol-6-yl)phenyl)carbamate]"
< 10 nM,61 nM,"NS(=O)(=O)CCNC(=O)C(c1nc2ccc(-c3ccc(C(=O)NCC(F)(F)F)cc3)cc2s1)S(=O)(=O)Cc1ccc(F)cc1 (centres unmarked) [Example B65, 4-(2-(1-((4-fluorobenzyl)sul-fonyl)-2-oxo-2-((2-sulfamoylethyl)amino)ethyl)-1,3-benzothiazol-6-yl)-N-(2,2,2-trifluoroethyl)ben-zamide]"
< 10 nM,41 nM,"CC(C)Cn1cc(-c2ccc3nc(C(C(=O)NCCS(N)(=O)=O)S(C)(=O)=O)sc3c2)cn1 (centres unmarked) [Example B67, 2-[6-(1-isobutyl-1H-pyrazol-4-yl)-1,3-benzothiazol-2-yl]-2-(methylsulfonyl)-N-(2-sulfamoylethyl)acetamide]"
< 10 nM,< 10 nM,"CS(=O)(=O)C(C(=O)NCCS(N)(=O)=O)c1nc2ccc(-c3cnn(Cc4ccccc4)c3)cc2s1 (centres unmarked) [Example B68, 2-[6-(1-benzyl-1H-pyrazol-4-yl)-1,3-benzothiazol-2-yl]-2-(methylsulfonyl)-N-(2-sulfamoylethyl)a-cetamide]"
< 10 nM,612 nM,"NS(=O)(=O)CCNC(=O)C(c1nc2ccc(-c3cnn(CCN4CCOCC4)c3)cc2s1)S(=O)(=O)CCC(F)(F)F (centres unmarked) [Example B69, 2-(6-(1-(2-(4-morpholinyl)eth-yl)-1H-pyrazol-4-yl)-1,3-benzothiazol-2-yl)-N-(2-sulfamoylethyl)-2-((3,3,3-trifluoropropyl)sul-fonyl)acetamide]"
< 10 nM,< 10 nM,"COCCS(=O)(=O)C(C(=O)NCCS(N)(=O)=O)c1nc2ccc(-c3ccc(NC(=O)OC(C)(C)C)cc3)cc2s1 (centres unmarked) [Example B70, tert-butyl (4-(2-(1-((2-methoxyethyl)sulfonyl)-2-oxo-2-((2-sulfamoylethyl)a-mino)ethyl)-1,3-benzothiazol-6-yl)phenyl)car-bamate]"
< 10 nM,< 10 nM,"COCCS(=O)(=O)C(C(=O)NCCS(N)(=O)=O)c1nc2ccc(-c3ccc(NC(=O)OC)cc3)cc2s1 (centres unmarked) [Example B71, methyl (4-(2-(1-((2-methoxyethyl)sulfonyl)-2-oxo-2-((2-sulfamoylethyl)a-mino)ethyl)-1,3-benzothiazol-6-yl)phenyl)car-bamate]"
< 10 nM,68 nM,"NS(=O)(=O)CCNC(=O)C(c1nc2ccc(-c3ccnc(F)c3)cc2s1)S(=O)(=O)CCC(F)(F)F (centres unmarked) [Example B72, 2-(6-(2-fluoro-4-pyridinyl)-1,3-benzothiazol-2-yl)-N-(2-sulfamoylethyl)-2-((3,3,3-trifluoropropyl)sulfonyl)a-cetamide]"
< 10 nM,15900 nM,"NS(=O)(=O)CCNC(=O)C(c1nc2ccc(-c3cnn(CCN4CCOCC4)c3)cc2s1)S(=O)(=O)Cc1ccc(C(F)(F)F)cc1 (centres unmarked) [Example B73, 2-(6-(1-(2-(4-morpholinyl)ethyl)-1H-pyrazol-4-yl)-1,3-benzothiazol-2-yl)-N-(2-sulfamoylethyl)-2-((4-(trifluoromethyl)benzyl)sul-fonyl)acetamide]"

# Second part, the compound before the results:
Compound,IC50 (Endothelial lipase (EL)),IC50 (hepatic lipase (HL))
"COCCOc1ccc(-c2ccc3nc(C(C(=O)NCCS(N)(=O)=O)S(C)(=O)=O)sc3c2)cc1 (centres unmarked) [Example B48, 2-(6-(4-(2-methoxyethoxy)phenyl)-1,3-benzothiazol-2-yl)-2-(methylsulfonyl)-N-(2-sulfamoylethyl)acetamide]",< 10 nM,11 nM
"COCCNC(=O)c1cccc(-c2ccc3nc(C(C(=O)NCCS(N)(=O)=O)S(C)(=O)=O)sc3c2)c1 (centres unmarked) [Example B49, N-(2-methoxyethyl)-3-(2-(1-(methylsulfonyl)-2-oxo-2-((2-sulfamoylethyl)a-mino)ethyl)-1,3-benzothiazol-6-yl)ben-zamide]",< 10 nM,152 nM
"CS(=O)(=O)C(C(=O)NCCS(N)(=O)=O)c1nc2ccc(-c3ccc(C#N)cc3)cc2s1 (centres unmarked) [Example B50, 2-(6-(4-cyanophenyl)-1,3-benzothiazol-2-yl)-2-(methylsulfonyl)-N-(2-Sulfamoylethyl)acetamide]",< 10 nM,14 nM
"CS(=O)(=O)C(C(=O)NCCS(N)(=O)=O)c1nc2ccc(-c3cccc(C#N)c3)cc2s1 (centres unmarked) [Example B51, 2-(6-(3-cyanophenyl)-1,3-benzothiazol-2-yl)-2-(methylsulfonyl)-N-(2-sulfamoylethyl)acetamide]",< 10 nM,< 10 nM
"CC(=O)Nc1cccc(-c2ccc3nc(C(C(=O)NCCS(N)(=O)=O)S(C)(=O)=O)sc3c2)c1 (centres unmarked) [Example B52, 2-(6-(3-acetamidophenyl)-1,3-benzothiazol-2-yl)-2-(methylsulfonyl)-N-(2-sulfamoylethyl)acetamide]",< 10 nM,66 nM
"NS(=O)(=O)CCNC(=O)C(c1nc2ccc(-c3ccc(CCO)cc3)cc2s1)S(=O)(=O)CCC(F)(F)F (centres unmarked) [Example B53, 2-(6-(4-(2-hydroxyethyl)phen-yl)-1,3-benzothiazol-2-yl)-N-(2-sulfamoylethyl)-2-((3,3,3-trifluoropropyl)sul-fonyl)acetamide]",< 10 nM,152 nM
"NS(=O)(=O)CCNC(=O)C(c1nc2ccc(-c3ccc(OCCN4CCCCC4)cc3)cc2s1)S(=O)(=O)CCC(F)(F)F (centres unmarked) [Example B54, 2-(6-(4-(2-(1-piperidinyl)ethoxy)phenyl)-1,3-benzothiazol-2-yl)-N-(2-sulfamoylethyl)-2-((3,3.3-trifluoropropyl)sul-fonyl)acetamide]",< 10 nM,23 nM
"CC(=O)Nc1ccc(-c2ccc3nc(C(C(=O)NCCS(N)(=O)=O)S(=O)(=O)CCC(F)(F)F)sc3c2)cc1 (centres unmarked) [Example B55, 2-(6-(4-acetamidophenyl)-1,3-benzothiazol-2-yl)-N-(2-sulfamoylethyl)-2-((3,3,3-trifluoropropyl)sul-fonyl)acetamide]",< 10 nM,55 nM
"CS(=O)(=O)C(C(=O)NCCS(N)(=O)=O)c1nc2ccc(-c3ccc(CO)cc3)cc2s1 (centres unmarked) [Example B56, 2-(6-(4-(hydroxymethyl)phen-yl)-1,3-benzothiazol-2-yl)-2-(methylsulfonyl)-N-(2-sulfamoylethyl)a-cetamide]",< 10 nM,122 nM
"CS(=O)(=O)C(C(=O)NCCS(N)(=O)=O)c1nc2ccc(-c3ccc(S(=O)(=O)NCCO)cc3)cc2s1 (centres unmarked) [Example B57, 2-(6-(4-((2-hydroxyeth-yl)sulfamoyl)phenyl)-1,3-benzothiazol-2-yl)-2-(methylsulfonyl)-N-(2-sulfamoylethyl)acetamide]",< 10 nM,144 nM
"CS(=O)(=O)C(C(=O)NCCS(N)(=O)=O)c1nc2ccc(-c3cccc(CCO)c3)cc2s1 (centres unmarked) [Example B58, 2-(6-(3-(2-hydroxyethyl)phenyl)-1,3-benzothiazol-2-yl)-2-(methylsulfonyl)-N-(2-sulfamoylethyl)acetamide]",< 10 nM,36 nM
"NS(=O)(=O)CCNC(=O)C(c1nc2ccc(-c3ccc(C(=O)NCCO)cc3)cc2s1)S(=O)(=O)CC1CC1 (centres unmarked) [Example B59, 4-(2-(1-((cyclopropylmeth-yl)sulfonyl)-2-oxo-2-((2-sulfamoylethyl)amino)eth-yl)-1,3-benzothiazol-6-yl)-N-(2-hydroxyethyl)ben-zamide]",< 10 nM,102 nM

# From patent publication US8987314B2, “Amide, urea or sulfone amide linked benzothiazole inhibitors of endothelial lipase” (Bristol-Myers Squibb Company, priority 2012, dated 2015)
